Test results reported in BindingDB's records for doi:10.1021/jm030030n (Virginia Commonwealth University, 2003).

Tests used:
[1] = Binding affinity for rodent 5-hydroxytryptamine 5A receptor
[2] = Binding affinity of compound towards rodent 5-hydroxytryptamine 7 receptor

| Structure (SMILES) | Ki [1] [nM] | Ki [2] [nM] |
| --- | --- | --- |
| CCN(CC)C(=O)[C@@H]1C=C2c3cccc4[nH]c(I)c(c34)C[C@H]2N(C)C1 | < 10 |  |
| CCCCC(=O)c1ccc(F)cc1 [1-(4-Fluoro-phenyl)-pentan-1-one] |  | 140 |
| Oc1ccc2cccc(N3CCNCC3)c2c1 [8-Piperazin-1-yl-naphthalen-2-ol] | 3 |  |
| CCN(CC)C(=O)[C@@H]1C=C2c3cccc4[nH]c(Br)c(c34)C[C@H]2N(C)C1 [LSD,2-Bromo] | < 10 |  |
